Results published in patent US8399681B2, “Substituted aminothiazolone indazoles as estrogen related receptor-alpha modulators” (Janssen Pharmaceutica NV, priority 2009, dated 2013).

target: T1, ERR1 (also known as ERR-α or ERR-1) (Homo sapiens, UniProt P11474); assay: TR-FRET assay (disruption of co-activator peptide binding); type: biochemical; conditions: 6His-tagged ERR1 LBD, GST-hSRC2 co-activator polypeptide; average of 3 independent experiments
T1 sequence (P11474 193-421 limits assumed): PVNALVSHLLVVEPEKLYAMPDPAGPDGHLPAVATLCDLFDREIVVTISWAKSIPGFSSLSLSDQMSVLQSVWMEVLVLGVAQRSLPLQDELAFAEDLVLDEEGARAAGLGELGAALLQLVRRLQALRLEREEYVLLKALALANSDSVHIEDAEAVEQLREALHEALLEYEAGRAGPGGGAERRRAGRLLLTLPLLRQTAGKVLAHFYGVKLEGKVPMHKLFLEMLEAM
Procedure: Time-Resolved Fluorescence Resonance Energy Transfer (TR-FRET) experiments were performed to examine the functional response of ERR1 (also known as ERR-α or ERR-1) ligands. The TR-FRET assay described herein relied on the conformation of ERR1 for binding to a co-activator peptide: when a test compound binds to ERR1 and alters its conformation, it can disrupt the binding of the co-activator peptide. The components of this homogeneous secondary assay included: the ^6His-tagged-ERR1LBD, a GST-labeled-hSRC2 co-activator polypeptide and a fluorescent donor/acceptor pair from CIS bio international htrf/bioassays (Bedford, Mass.) using both an α-GST Europium Cryptate (Eu) label and an α^6His-XL665 (allophycocyanin) fluorophore.
For TR-FRET measurements, the reaction was buffered in 25 mM Tris pH 8, 2.5 mM Hepes, 20 mM KCl, 1 mM DTT, and 0.05 mg/mL BSA (-lipids). The final concentrations of reagents were 6 nM of ERR1LBD, 6 nM GST-SRC-2 peptide, 30 nM Eu cryptate, and 7.5 nM XL665. Reactions were allowed to reach equilibrium at 25° C. for 4-18 hours before collecting data on the Analyst from LJL Biosystems (Molecular Devices Sunnyvale, Calif.). As a time-resolved method, the samples were excited at […] and emission was collected for 1 ms at both 615 and 665 nm with delays of 400 and 75 μs, respectively. Dose response curves were fitted using a hyperbolic equation and the data reported is the average of 3 independent experiments.

Row | Structure (SMILES) | EC50 [nM]
1 | CC[C@H]1CNCCN1C1=NC(=O)/C(=C/c2ccc3c(cnn3Cc3ccc(Cl)cc3C(F)(F)F)c2)S1 [Example 255] | 28
2 | CN1C[C@H]2CC[C@@H](C1)N2C1=NC(=O)/C(=C/c2ccc3c(cnn3Cc3ccc(Cl)cc3C(F)(F)F)c2)S1 [Example 87, 5-[1-(4-Chloro-2-trifluoromethyl-benzyl)-1H-indazol-5-ylmethylene]-2-(3-methyl-3,8-diaza-bicyclo[3.2.1]oct-8-yl)-thiazol-4-one] | 15
3 | C[C@@H]1CN(C2CN(C3=NC(=O)/C(=C/c4ccc5c(cnn5Cc5ccc(C(F)(F)F)cc5C(F)(F)F)c4)S3)C2)C[C@H](C)O1 [Example 202, 5-({1-[2,4-Bis(trifluoromethyl)benzyl]-1H-indazol-5-yl}methylidene)-2-[3-(2,6-cis-dimethylmorpholin-4-yl)azetidin-1-yl]-1,3-thiazol-4(5H)-one] | 59.7
4 | O=C1N=C(N2CCO[C@H](CO)C2)S/C1=C\c1ccc2c(cnn2Cc2ccc(F)cc2C(F)(F)F)c1 [Example 177, 5-[1-(4-Fluoro-2-trifluoromethyl-benzyl)-1H-indazol-5-ylmethylene]-2-((2S)-2-hydroxymethyl-morpholin-4-yl)-thiazol-4-one] | 55
5 | CN1C[C@H]2CC[C@@H](C1)N2C1=NC(=O)/C(=C/c2ccc3c(cnn3Cc3ccc(C(F)(F)F)cc3C(F)(F)F)c2)S1 [Example 86, 5-[1-(2,4-Bis-trifluoromethyl-benzyl)-1H-indazol-5-ylmethylene]-2-(3-methyl-3,8-diaza-bicyclo[3.2.1]oct-8-yl)-thiazol-4-one] | 20
6 | CC1(C(=O)O)CCN(C2=NC(=O)/C(=C/c3ccc4c(cnn4Cc4ccc(C(F)(F)F)cc4C(F)(F)F)c3)S2)CC1 [Example 74, 1-{5-[1-(2,4-Bis-trifluoromethyl-benzyl)-1H-indazol-5-ylmethylene]-4-oxo-4,5-dihydro-thiazol-2-yl}-4-methyl-piperidine-4-carboxylic acid] | 56.2
7 | COC(=O)CNC(=O)[C@@H]1CN(C2=NC(=O)/C(=C/c3ccc4c(cnn4Cc4ccc(C(F)(F)F)cc4C(F)(F)F)c3)S2)CCO1 [Example 282, Methyl N-({(2S)-4-[5-({1-[2,4-bis(trifluoromethyl)benzyl]-1H-indazol-5-yl}methylidene)-4-oxo-4,5-dihydro-1,3-thiazol-2-yl]morpholin-2-yl}carbonyl)glycinate] | > 4000
8 | COC[C@@H]1CN(C2=NC(=O)/C(=C/c3ccc4c(cnn4Cc4ccc(C(F)(F)F)cc4C(F)(F)F)c3)S2)CCN1 [Example 211, 5-({1-[2,4-Bis(trifluoromethyl)benzyl]-1H-indazol-5-yl}methylidene)-2-[3-(S)-(methoxymethyl)piperazin-1-yl]-1,3-thiazol-4(5H)-one] | 31
9 | NC1CN(C2=NC(=O)/C(=C/c3ccc4c(cnn4Cc4ccc(C(F)(F)F)cc4C(F)(F)F)c3)S2)C1 [Example 77, 2-(3-Amino-azetidin-1-yl)-5-[1-(2,4-bis-trifluoromethyl-benzyl)-1H-indazol-5-ylmethylene]-thiazol-4-one] | 58.7
10 | O=C1N=C(N2CCn3cccc3C2)S/C1=C\c1ccc2c(cnn2Cc2ccc(C(F)(F)F)cc2C(F)(F)F)c1 [Example 169, 5-[1-(2,4-Bis-trifluoromethyl-benzyl)-1H-indazol-5-ylmethylene]-2-(3,4-dihydro-1H-pyrrolo[1,2-a]pyrazin-2-yl)-thiazol-4-one] | 225
11 | O=C1N=C(N2CC(N3CCOCC3)C2)S/C1=C\c1ccc2c(cnn2Cc2ccc(Cl)cc2C(F)(F)F)c1 [Example 205, 5-({1-[4-Chloro-2-(trifluoromethyl)benzyl]-1H-indazol-5-yl}methylidene)-2-(3-morpholin-4-ylazetidin-1-yl)-1,3-thiazol-4(5H)-one] | 30
12 | CONC(=O)C1CN(C2=NC(=O)/C(=C/c3ccc4c(cnn4Cc4ccc(C(F)(F)F)cc4C(F)(F)F)c3)S2)CCN1 (stereo not shown) [Example 272, 4-[5-({1-[2,4-Bis(trifluoromethyl)benzyl]-1H-indazol-5-yl}methylidene)-4-oxo-4,5-dihydro-1,3-thiazol-2-yl]-N-methoxypiperazine-2-carboxamide] | 35
13 | CN1CCN(C2=NC(=O)/C(=C/c3ccc4c(cnn4Cc4ccc(Cl)cc4Cl)c3)S2)CC1 [Example 25, 5-[1-(2,4-Dichloro-benzyl)-1H-indazol-5-ylmethylene]-2-(4-methyl-piperazin-1-yl)-thiazol-4-one] | 68

Second part, the compound after the results:

Row | EC50 [nM] | Structure (SMILES)
14 | 20 | CN1CCN(C2=NC(=O)/C(=C/c3ccc4c(cnn4Cc4ccc(C(F)(F)F)cc4C(F)(F)F)c3)S2)C[C@@H]1CO [Example 195, 5-({1-[2,4-Bis(trifluoromethyl)benzyl]-1H-indazol-5-yl}methylidene)-2-[3-(R)-(hydroxymethyl)-4-methylpiperazin-1-yl]-1,3-thiazol-4(5H)-one]
15 | 26 | CC(C)(C)NC(=O)[C@@H]1CN(C2=NC(=O)/C(=C/c3ccc4c(cnn4Cc4ccc(Cl)cc4C(F)(F)F)c3)S2)CCN1 [Example 228, (2S)—N-tert-Butyl-4-[5-({1-[4-chloro-2-(trifluoromethyl)benzyl]-1H-indazol-5-yl}methylidene)-4-oxo-4,5-dihydro-1,3-thiazol-2-yl]piperazine-2-carboxamide]
16 | 11 | C[C@@H]1CN(C2=NC(=O)/C(=C/c3ccc4c(cnn4Cc4ccc(C(F)(F)F)cc4C(F)(F)F)c3)S2)C[C@H](C)N1 [Example 238, 5-({1-[2,4-(trifluoromethyl)benzyl]-1H-indazol-5-yl}methylidene)-2-(3,5-(cis)-dimethylpiperazin-1-yl)-1,3-thiazol-4(5H)-one]
17 | 8.7 | COCC(=O)N1CCN(C2=NC(=O)/C(=C/c3ccc4c(cnn4Cc4ccc(Cl)cc4C(F)(F)F)c3)S2)CC1 [Example 91, 5-[1-(4-Chloro-2-trifluoromethyl-benzyl)-1H-indazol-5-ylmethylene]-2-[4-(2-methoxy-acetyl)-piperazin-1-yl]-thiazol-4-one]
18 | 3.4 | COCC(=O)N1CCN(C2=NC(=O)/C(=C/c3ccc4c(cnn4Cc4ccc(Cl)cc4C(F)(F)F)c3)S2)[C@H](C)C1 [Example 90, 5-[1-(4-Chloro-2-trifluoromethyl-benzyl)-1H-indazol-5-ylmethylene]-2-[4-(2-methoxy-acetyl)-2-(R)-methyl-piperazin-1-yl]-thiazol-4-one]
19 | 15 | COc1ccc(Cn2ncc3cc(/C=C4\SC(N5CCC(C(=O)O)CC5)=NC4=O)ccc32)c(C(F)(F)F)c1 [Example 41, 1-{5-[1-(4-M ethoxy-2-trifluoromethyl-benzyl)-1H-indazol-5-ylmethylene]-4-oxo-4,5-dihydro-thiazol-2-yl}-piperidine-4-carboxylic acid]
20 | 9 | C[C@@H]1CN(C2=NC(=O)/C(=C/c3ccc4c(cnn4Cc4ccc(C(F)(F)F)cc4C(F)(F)F)c3)S2)C[C@H](C)[N+]1(C)C [Example 240, (2R,6S)-4-[5-({1-[2,4-Bis(trifluoromethyl)benzyl]-1H-indazol-5-yl}methylidene)-4-oxo-4,5-dihydro-1,3-thiazol-2-yl]-1,1,2,6-tetramethylpiperazin-1-ium chloride]
21 | 15 | O=C1N=C(N2CCC(O)(C(=O)O)CC2)S/C1=C\c1ccc2c(cnn2Cc2ccc(Cl)cc2C(F)(F)F)c1 [Example 268, 1-[5-({1-[4-Chloro-2-(trifluoromethyl)benzyl]-1H-indazol-5-yl}methylidene)-4-oxo-4,5-dihydro-1,3-thiazol-2-yl]-4-hydroxypiperidine-4-carboxylic acid]
22 | 11 | O=C1N=C(N2CC[C@H](NC(=O)C(F)(F)F)C2)S/C1=C\c1ccc2c(cnn2Cc2ccc(Cl)cc2C(F)(F)F)c1 (stereo in doubt) [Example 116, N-(1-{5-[1-(4-Chloro-2-trifluoromethyl-benzyl)-1H-indazol-5-ylmethylene]-4-oxo-4,5-dihydro-thiazol-2-yl}-pyrrolidin-3-yl)-2,2,2-trifluoro-acetamide]
23 | 17 | C[C@H]1CN(C2=NC(=O)/C(=C/c3ccc4c(cnn4Cc4ccc(Cl)cc4C(F)(F)F)c3)S2)[C@@H](C)CN1 [Example 65, 5-[1-(4-Chloro-2-trifluoromethyl-benzyl)-1H-indazol-5-ylmethylene]-2-(2-(S),5-(S)-dimethyl-piperazin-1-yl)-thiazol-4-one]
24 | 2.8 | O=C1N=C(N2C[C@@H](O)[C@H](O)C2)S/C1=C\c1ccc2c(cnn2Cc2ccc(Cl)cc2C(F)(F)F)c1 [Example 99, 5-[1-(4-Chloro-2-trifluoromethyl-benzyl)-1H-indazol-5-ylmethylene]-2-(3R,4R-dihydroxy-pyrrolidin-1-yl)-thiazol-4-one]
25 | 27 | O=C1N=C(N2CCCC2)S/C1=C\c1ccc2c(cnn2Cc2ccc(Cl)cc2C(F)(F)F)c1 [Example 162, 5-[1-(4-Chloro-2-trifluoromethyl-benzyl)-1H-indazol-5-ylmethylene]-2-pyrrolidin-1-yl-thiazol-4-one]
